Results from patent US8324131B2, “Composition and method for controlling plant diseases” (Sumitomo Chemical Company, Limited, priority 2008, dated 2012).

Tests used:
[1] = test system: Pythium ultimum, pathogen of cucumber damping-off; experiment: Cucumber damping-off seed treatment test (Test Example 1); format: in vivo; conditions: 18° C., 13 days
Source text: An acetone solution of ethaboxam and an acetone solution of metconazole were mixed to prepare mixed liquids containing ethaboxam and metconazole in predetermined concentration. These mixed liquids were adhered on the surface of cucumber (Sagamihanjiro) seeds and allowed to stand still overnight. A plastic pot was filled with sandy soil and the seeds were disseminated on it. Then the seeds were covered with sandy soil which had been mixed with a bran medium on which Pythium ultimum, pathogen of cucumber damping-off, had been allowed to grow. They were irrigated and allowed to grow at 18° C. under humidity for 13 days, and thereafter control effect was checked.
As a comparison, acetone solutions containing ethaboxam in the predetermined concentration and acetone solutions containing metconazole in the predetermined concentration were prepared and subjected to similar tests.
In order to calculate the control value, the incidence of disease was also determined in the case in which the seeds had not been treated with the agent.
The incidence of disease was calculated by Equation 1 and the control value was calculated by Equation 2 based on the incidence of disease.
Incidence of disease=(Number of no emerging seedlings and number of seedlings in which development of disease was observed)×100/(Number of total disseminated seeds) “Equation 1” Control value=100×(A−B)/A “Equation 2”;
A: Incidence of disease of plant in untreated area
B: Incidence of disease of plant in treated area
Generally, the control value expected for the case in which the given two kinds of active ingredient compounds are mixed and used for the treatment, the so-called control value expectation is calculated from the following Colby's calculating equation. E=X+Y−(X×Y)/100 “Equation 3”;
X: Control value (%) when active ingredient compound A is used for treatment in M g per 100 kg or M ppm of seeds
Y: Control value (%) when active ingredient compound B is used for treatment in N g per 100 kg or N ppm of seeds
E: Control value (%) expected for the case in which active ingredient compound A in M g per 100 kg or M ppm of seeds and active ingredient compound B in N g per 100 kg or N ppm of seeds are mixed and used for treatment (hereinbelow referred to as “control value expectation”) “Synergetic effect (%)” (Actual control value)×100/(Control value expectation)

[2] = test system: pathogen of cucumber gray mold; experiment: Cucumber gray mold foliar spray test (Test Example 2); format: in vivo, Botrytis cinerea; conditions: 12.5 ppm of each test compound; for Actual control value: spray to stalk and leaves of cucumber seedlings, 12° C., high humidity, 6 days
Source text: A plastic pot was filled with sandy soil and cucumber (Sagamihanjiro) seeds were disseminated on it. Then the seeds were allowed to grow in a glasshouse for 12 days. A wettable powder of ethaboxam and a wettable powder of metconazole were individually diluted with water and then mixed to prepare mixed liquids containing ethaboxam and metconazole in predetermined concentration. These mixed liquids were sprayed to the stalk and leaves of cucumber seedlings to adhere them sufficiently on the surface of leaves of the seedlings. After spraying, the cucumber seedlings were air-dried and a PDA medium containing spores of pathogen of cucumber gray mold was placed onto the leaves of the seedlings. Then the plants were allowed to stand at 12° C. under high humidity for 6 days, and thereafter control effect was checked.
As a comparison, mixed liquids containing ethaboxam and triadimefon, mixed liquids containing ethaboxam and triadimenol, and mixed liquids containing ethaboxam and imazalil were prepared, sprayed to the stalk and leaves of cucumber seedlings to adhere them sufficiently on the surface of leaves of the seedlings, and subjected to similar tests, respectively. In addition, the above wettable powder of ethaboxam and the above wettable powder of metconazole were individually diluted with water to prepare liquids containing ethaboxam in predetermined concentration and liquids containing metconazole in predetermined concentration and then subjected to similar tests.
The incidence of disease was calculated by Equation 4 and the control value was calculated by Equation 2 based on the incidence of disease.
Incidence of disease=(diameter of leaf spot of plant in treated area)/(diameter of leaf spot of plant in untreated area)×100 “Equation 4”

| SMILES | Actual control value ([1]; Metconazole 5 g/100 kg-seed alone) [%] | Actual control value ([1]; Metconazole 10 g/100 kg-seed alone) [%] | Actual control value ([1]; Metconazole 20 g/100 kg-seed alone) [%] | Control value expectation [2] [%] | Actual control value [2] [%] | Actual control value ([1]; Ethaboxam 5 g/100 kg-seed alone) [%] | Actual control value ([1]; Ethaboxam 10 g/100 kg-seed alone) [%] |
| --- | --- | --- | --- | --- | --- | --- | --- |
| CC1(C)CCC(Cc2ccc(Cl)cc2)C1(O)Cn1cncn1 (stereo not drawn) [Metconazole] | 0 | 0 | 0 | 0 | 0 |  |  |
| CCNc1nc(CC)c(C(=O)NC(C#N)c2cccs2)s1 (stereo not drawn) [Ethaboxam] |  |  |  | 0 | 0 | 25 | 58 |
